Laboratory results from US10827754B2, “Fungicidal composition comprising a pyridylethylbenzamide derivative and a compound capable of inhibiting the ergosterol biosynthesis” (BAYER INTELLECTUAL PROPERTY GMBH, priority 2004, dated 2020).

Key:
Format in all cases: in vivo
[1] = system: Botrytis cinerea; test: Example 9: efficacy against Botrytis cinerea on gherkin plants, formulated compounds; conditions: alone, grading 5 to 7 days after contamination
Experimental: (§1) The formulated compounds are diluted with water to obtain the desired active material concentration.
(§2) Gherkin plants (Petit vert de Paris variety) in starter cups, sown on a 50/50 peat soil-pozzolana substrate and grown at 18-20° C., are treated at the cotyledon Z11 stage by spraying with the aqueous suspension described above. Plants, used as controls, are treated with an aqueous solution not containing the active material.
(§3) After 24 hours, the plants are contaminated by depositing drops of an aqueous suspension of Botrytis cinerea spores (150,000 spores per ml) on upper surface of the leaves. The spores are collected from a 15-day-old culture and are suspended in a nutrient solution composed of: • 20 g/L of gelatine • 50 g/L of cane sugar • 2 g/L of NH4NO3 • 1 g/L of KH2PO4
(§4) The contaminated gherkin plants are settled for 5/7 days in a climatic room at 15-11° C. (day/night) and at 80% relative humidity. Grading (% of efficacy) is carried out 5 to 7 days after the contamination, in comparison with the control plants.

[2] = system: Botrytis cinerea; test: Example 6: efficacy against Botrytis cinerea on gherkin plants; conditions: alone, grading 5 to 7 days after contamination
Experimental: (§5) The active ingredients tested are prepared by potter homogenisation in a mixture of acetone/tween/water. This suspension is then diluted with water to obtain the desired active material concentration.
as §2, §3, §4

[3] = system: Sphaerotheca fuliginea; test: Example 11: efficacy against Sphaerotheca fuliginea on gherkin plants, formulated compounds; conditions: Podosphaera fuliginea, 504 h, alone, grading 21 days after contamination
Experimental: (§6) The formulated compounds are diluted with water to obtain the desired active material concentration
Gherkin plants (Vert petit de Paris variety) in starter cups, sown on a 50/50 peat soil-pozzolana substrate and grown at 20° C./23° C., are treated at the 2-leaves stage by spraying with the aqueous suspension described above. Plants, used as controls, are treated with an aqueous solution not containing the active material.
After 24 hours, the plants are contaminated by spraying them with an aqueous suspension of Sphaerotheca fuliginea spores (100 000 spores per ml). The spores are collected from a contaminated plants. The contaminated gerkhin plants are incubated at about 20° C./25° C. and at 60/70% relative humidity.
Grading (% of efficacy) is carried out 21 days after the contamination, in comparison with the control plants.

[4] = system: Botrytis cinerea; test: Example 15: efficacy against Botrytis cinerea on gherkin plants, formulated compounds; conditions: read-out: % Efficacy
Experimental: as §1, §2, §3, §4

[5] = system: Erysiphe graminis f sp. tritici; test: Example 4: efficacy against Erysiphe graminis on wheat plants, formulated compounds; conditions: Blumeria graminis, alone, grading 7 to 14 days after contamination
Experimental: The formulated (concentrated suspension) compounds are diluted with water to obtain the desired active material concentration Wheat plants (Audace variety) in starter cups, sown on 50/50 peat soil-pozzolana substrate and grown at 12° C., are treated at the 1-leaf stage (10 cm tall) by spraying with the aqueous suspension described above.
(§7) Plants, used as controls, are treated with an aqueous solution not containing the active material.
(§8) After 24 hours, the plants are contaminated by dusting them with Erysiphe graminis f sp. tritici spores, the dusting being carried out using diseased plants.
(§9) Grading is carried out 7 to 14 days after the contamination, in comparison with the control plants.

[6] = system: Botrytis cinerea; test: Example 3: efficacy against Botrytis cinerea on gherkin plants, spray 24 h before contamination; conditions: alone, grading 5 to 7 days after contamination
Experimental: as §5, §2, §3, §4

[7] = system: Botrytis cinerea; test: Example 13: efficacy against Botrytis cinerea on gherkin plants, formulated compounds; conditions: alone, grading 5 to 7 days after contamination
Experimental: as §1, §2, §3, §4

[8] = system: Mycosphaerella graminicola; test: Example 1: efficacy against Mycosphaerella graminicola on wheat plants, spray 24 h before contamination; conditions: Zymoseptoria tritici, alone, grading 21 to 28 days after contamination
Experimental: as §5
(§10) Wheat plants (Scipion variety), sown on a 50/50 peat soil-pozzolana substrate in starter cups and grown at 12° C., are treated at the 1-leaf stage (10 cm tall) by spraying with the aqueous suspension described above. Plants, used as controls, are treated with an aqueous solution not containing the active material.
(§11) After 24 hours, the plants are contaminated by spraying them with an aqueous suspension of Mycosphaerella graminicola spores (500 000 spores per ml). The spores are collected from a 7-day-old culture. The contaminated wheat plants are incubated for 72 hours at 18° C. and at 100% relative humidity, and then for 21 to 28 days at 90% relative humidity.
(§12) Grading (% of efficacy) is carried out 21 to 28 days after the contamination, in comparison with the control plants.

[9] = system: Puccinia recondita; test: Example 8: efficacy against Puccinia recondita on wheat plants, formulated compounds; conditions: 240 h, alone, grading 10 days after contamination
Experimental: The formulated compounds are diluted with water to obtain the desired active material concentration Wheat plants (Scipion variety) in starter cups, sown on 50/50 peat soil-pozzolana substrate and grown at 12° C., are treated at the 1-leaf stage (10 cm tall) by spraying with the aqueous suspension described above.
as §7
(§13) After 24 hours, the plants are contaminated by spraying the leaves with an aqueous suspension of Puccinia recondita spores (100,000 spores per ml). The spores are collected from a 10-day-old contaminated wheat and are suspended in water containing 2.5 ml/l of tween 80 10%. The contaminated wheat plants are incubated for 24 hours at 20° C. and at 100% relative humidity, and then for 10 days at 20° C. and at 70% relative humidity. Grading is carried out 10 days after the contamination, in comparison with the control plants.

[10] = system: Erysiphe graminis f sp. tritici; test: Example 2: efficacy against Erysiphe graminis on wheat plants, spray 24 h before contamination; conditions: Blumeria graminis, alone, grading 7 to 14 days after contamination
Experimental: as §5
Wheat plants (Audace variety) in starter cups, sown on 50/50 peat soil-pozzolana substrate and grown at 12° C., are treated at the 1-leaf stage (10 cm tall) by spraying with the aqueous suspension described above.
as §7, §8, §9

[11] = system: Erysiphe graminis f sp. tritici; test: Example 7: efficacy against Erysiphe graminis on wheat plants, formulated compounds; conditions: Blumeria graminis, alone, grading 7 to 14 days after contamination
Experimental: The formulated compounds are diluted with water to obtain the desired active material concentration. Wheat plants (Audace variety) in starter cups, sown on 50/50 peat soil-pozzolana substrate and grown at 12° C., are treated at the 1-leaf stage (10 cm tall) by spraying with the aqueous suspension described above.
as §7
After 24 hours, the plants are contaminated by dusting them with Erysiphe graminis f sp. tritici spores, the dusting being carried out using diseased plants. Grading is carried out 7 to 14 days after the contamination, in comparison with the control plants.

[12] = system: Erysiphe graminis f sp. tritici; test: Example 17: efficacy against Erysiphe graminis on wheat plants, formulated compounds; conditions: Blumeria graminis, alone, grading 7 to 14 days after contamination
Experimental: The formulated compounds (Compound 1 and a mix of spiroxamine (300 g/l) and prothioconazole (160 g/l) are diluted with water to obtain the desired active material concentration Wheat plants (Audace variety) in starter cups, sown on 50/50 peat soil-pozzolana substrate and grown at 12° C., are treated at the 1-leaf stage (10 cm tall) by spraying with the aqueous suspension described above.
as §7, §8, §9

[13] = system: Puccinia recondita; test: Example 10: efficacy against Puccinia recondita on wheat plants; conditions: 240 h, alone, grading 10 days after contamination
Experimental: as §5
Wheat plants (Scipion variety) in starter cups, sown on 50/50 peat soil-pozzolana substrate and grown at 12° C., are treated at the 1-leaf stage (10 cm tall) by spraying with the aqueous suspension described above.
as §7, §13

[14] = system: Erysiphe graminis f sp. tritici; test: Example 14: efficacy against Erysiphe graminis on wheat plants, formulated compounds; conditions: Blumeria graminis, alone, grading 7 to 14 days after contamination
Experimental: The formulated compounds are diluted with water to obtain the desired active material concentration Wheat plants (Audace variety) in starter cups, sown on 50/50 peat soil-pozzolana substrate and grown at 12° C., are treated at the 1-leaf stage (10 cm tall) by spraying with the aqueous suspension described above.
as §7, §8, §9

[15] = system: Mycosphaerella graminicola; test: Example 12: efficacy against Mycosphaerella graminicola on wheat plants, formulated compounds; conditions: Zymoseptoria tritici
Experimental: as §6, §10, §11, §12

[16] = system: Botrytis cinerea; test: Example 5: efficacy against Botrytis cinerea on gherkin plants; conditions: alone, grading 5 to 7 days after contamination
Experimental: as §5, §2, §3, §4

[17] = system: Botrytis cinerea; test: Example 16: efficacy against Botrytis cinerea on gherkin plants, formulated compounds; conditions: alone, grading 5 to 7 days after contamination
Experimental: as §1, §2, §3, §4

CCCCC(C#N)(Cn1cncn1)c1ccc(Cl)cc1 (stereo not drawn) [Myclobutanil, reference compound]
Emax at 333 ppm ([1]; dose 333 ppm): 0%

CCCCC(O)(Cn1cncn1)c1ccc(Cl)cc1Cl (stereo not drawn) [Hexaconazole, reference compound]
Emax at 111 ppm ([2]; dose 111 ppm): 15%

CC1(C(=O)Nc2ccc(O)c(Cl)c2Cl)CCCCC1 [Fenhexamid, reference compound]
Emax at 37 ppm ([3]; dose 37 ppm): 35%

O=CNC(N1CCN(C(NC=O)C(Cl)(Cl)Cl)CC1)C(Cl)(Cl)Cl (stereo not drawn) [Triforine]
Emax at 37 ppm [4]: 0% | Emax at 111 ppm [4]: 15%

CC(C1CC1)C(O)(Cn1cncn1)c1ccc(Cl)cc1 (stereo not drawn) [Cyproconazole, reference compound]
Emax at 31.2 g/ha ([5]; dose 31.2 g/ha): 15%

CCCC1COC(Cn2cncn2)(c2ccc(Cl)cc2Cl)O1 (stereo not drawn) [Propiconazole, reference compound]
Emax at 37 ppm [6]: 30% | Emax at 111 ppm [6]: 50% | Emax at 333 ppm ([6]; dose 333 ppm): 70%

CC(Cc1ccc(C(C)(C)C)cc1)CN1C[C@@H](C)O[C@@H](C)C1 (stereo partly drawn) [Fenpropimorph, reference compound]
Emax at 62.5 g/ha [7]: 10% | Emax at 125 g/ha ([7]; dose 125 g/ha): 30%

CC(C)(C)C(O)(CCc1ccc(Cl)cc1)Cn1cncn1 (stereo not drawn) [Tebuconazole, reference compound]
Emax at 15 g/ha [8]: 15% | Emax at 31 g/ha [8]: 15%

Fc1ccc([C@]2(Cn3cncn3)O[C@H]2c2ccccc2Cl)cc1 (racemic) [Epoxiconazole, reference compound]
Emax at 15.6 g/ha ([9]; dose 15.6 g/ha): 25%

OC(Cc1ccccc1Cl)(Cn1nc[nH]c1=S)C1(Cl)CC1 (stereo not drawn) [Prothioconazole, reference compound]
Emax at 125 g/ha [10]: 0% | Emax at 250 g/ha ([10]; dose 250 g/ha): 60%

O=C(NCCc1ncc(C(F)(F)F)cc1Cl)c1ccccc1C(F)(F)F [Compound 1, N-{2-[3-chloro-5-(trifluoromethyl)-2-pyridinyl]ethyl}-2-trifluoromethylbenzamide]
Emax at 250 g/ha ([11]; dose 250 g/ha): 40% | Emax at 125 g/ha [12]: 0% | Emax at 12 ppm ([6]; dose 12 ppm): 0% | Emax at 37 ppm [6]: 30% | Emax at 111 ppm [6]: 80% | Emax at 37 ppm ([4]; dose 37 ppm, alone, gherkin, grading 5 to 7 days after contamination): 50% | Emax at 250 g/ha [13]: 0% | Emax at 12.3 ppm ([1]; dose 12.3 ppm): 0% | Emax at 37 ppm ([1]; dose 37 ppm): 50% | Emax at 62.5 g/ha ([9]; dose 62.5 g/ha): 0% | Emax at 250 g/ha ([9]; dose 250 g/ha): 0% | Emax at 4.1 ppm ([3]; dose 4.1 ppm): 28% | Emax at 31.2 g/ha ([7]; dose 31.2 g/ha): 20% | Emax at 62.5 g/ha [7]: 30% | Emax at 15 g/ha [8]: 25% | Emax at 31 g/ha [8]: 65% | Emax at 62.5 g/ha ([5]; dose 62.5 g/ha): 10% | Emax at 500 g/ha ([14]; dose 500 g/ha): 44% | Emax at 62.5 g/ha ([15]; dose 62.5 g/ha, alone, wheat, grading 21 to 28 days after contamination): 77% | Emax at 37 ppm ([16]; dose 37 ppm): 0% | Emax at 111 ppm [16]: 80% | Emax at 4 ppm ([2]; dose 4 ppm): 10% | Emax at 62.5 g/ha ([10]; dose 62.5 g/ha): 0% | Emax at 125 g/ha [10]: 20% | Emax at 12.3 ppm ([17]; dose 12.3 ppm): 5%

CCCN(CCOc1c(Cl)cc(Cl)cc1Cl)C(=O)n1ccnc1 [Prochloraz, reference compound]
Emax at 250 g/ha ([15]; read-out: % Efficacy): 54%

CC(C)(C)C(O)C(Oc1ccc(-c2ccccc2)cc1)n1cncn1 (stereo not drawn) [Bitertanol, reference compound]
Emax at 333 ppm ([17]; dose 333 ppm): 0%

CCCN(CC)CC1COC2(CCC(C(C)(C)C)CC2)O1 (stereo not drawn) [Spiroxamine, reference compound]
Emax at 125 g/ha ([14]; dose 125 g/ha): 0%

CC(C)(C)C(O)C(Oc1ccc(Cl)cc1)n1cncn1 (stereo not drawn) [Triadimenol, reference compound]
Emax at 250 g/ha [13]: 50%

CC1(C)CCC(Cc2ccc(Cl)cc2)C1(O)Cn1cncn1 (stereo not drawn) [Metconazole, reference compound]
Emax at 31.2 g/ha ([11]; dose 31.2 g/ha): 50%

CC1COC(Cn2cncn2)(c2ccc(Oc3ccc(Cl)cc3)cc2Cl)O1 (stereo not drawn) [Difenconazole, reference compound]
Emax at 111 ppm [16]: 15% | Emax at 333 ppm ([16]; dose 333 ppm): 25%
